The subject of the series is HepG2 cells. The series is described as follows: Live/dead staining of HepG2 hydrogel spheroids in 384 well plate, high-content imaging. The following applies: 0.1% Triton X for 15 minutes, after 19 days of culture, toxic control. The series is classed as cell-based. The procedure: High-throughput assays: HepG2 cells were cultured in 2D in DMEM (Invitrogen Cat #31885)+10% fetal bovine serum (FBS). Cells were detached at passage 12 by 0.05% trypsin and mixed (1×10^7 cells/ml) with Puramatrix™+10% Bovine Collagen I (Gibco, Ref: A10644-01, Auckland, NZ) and 1 ul of the mix was pipetted in each well of a 384 well plate (Greiner microplate, Ref: 787979) to form the HepG2 hydrogel spheroids (one hydrogel spheroid per well). Hydrogel spheroids were maintained in HepG2 medium and the medium change was handled automatically by a robotic platform (NextGenQBio) for 19 days. Live/dead staining (Invitrogen, Ref:3224) was performed on the cell in the spheroids according the manufacturer's instruction. Prior to live/dead staining, a group of the hydrogel spheroids were treated with 0.1% Triton X for 15 minutes as control. Nuclei was stained by Hoechst (1:1000 dilution) for 15 minutes. The plate was imaged by a high-content analysis system (Operetta, PerkinElmer®). […] This experiment highlights the potential of hydrogel spheroids to be used in a high-throughput set up specifically important for drug/compound screening and toxicity studies.

“Also recorded” adds a separate entry of the source.

For the substance Triton X, the “live (green)/dead (red) staining of HepG2 cells in hydrogel spheroids” value was “minimal or no green colour; also recorded: cell death”.

Values taken from US20230392123A1, “[…]-ASSEMBLED PEPTIDE HYDROGELS […]” (KATHOLIEKE UNIVERSITEIT LEUVEN, priority 2020, published 2023).
